Data set [1] addresses T1, HDAC6 (Homo sapiens, UniProt Q9UBN7).
T1 sequence (Q9UBN7 1-1215): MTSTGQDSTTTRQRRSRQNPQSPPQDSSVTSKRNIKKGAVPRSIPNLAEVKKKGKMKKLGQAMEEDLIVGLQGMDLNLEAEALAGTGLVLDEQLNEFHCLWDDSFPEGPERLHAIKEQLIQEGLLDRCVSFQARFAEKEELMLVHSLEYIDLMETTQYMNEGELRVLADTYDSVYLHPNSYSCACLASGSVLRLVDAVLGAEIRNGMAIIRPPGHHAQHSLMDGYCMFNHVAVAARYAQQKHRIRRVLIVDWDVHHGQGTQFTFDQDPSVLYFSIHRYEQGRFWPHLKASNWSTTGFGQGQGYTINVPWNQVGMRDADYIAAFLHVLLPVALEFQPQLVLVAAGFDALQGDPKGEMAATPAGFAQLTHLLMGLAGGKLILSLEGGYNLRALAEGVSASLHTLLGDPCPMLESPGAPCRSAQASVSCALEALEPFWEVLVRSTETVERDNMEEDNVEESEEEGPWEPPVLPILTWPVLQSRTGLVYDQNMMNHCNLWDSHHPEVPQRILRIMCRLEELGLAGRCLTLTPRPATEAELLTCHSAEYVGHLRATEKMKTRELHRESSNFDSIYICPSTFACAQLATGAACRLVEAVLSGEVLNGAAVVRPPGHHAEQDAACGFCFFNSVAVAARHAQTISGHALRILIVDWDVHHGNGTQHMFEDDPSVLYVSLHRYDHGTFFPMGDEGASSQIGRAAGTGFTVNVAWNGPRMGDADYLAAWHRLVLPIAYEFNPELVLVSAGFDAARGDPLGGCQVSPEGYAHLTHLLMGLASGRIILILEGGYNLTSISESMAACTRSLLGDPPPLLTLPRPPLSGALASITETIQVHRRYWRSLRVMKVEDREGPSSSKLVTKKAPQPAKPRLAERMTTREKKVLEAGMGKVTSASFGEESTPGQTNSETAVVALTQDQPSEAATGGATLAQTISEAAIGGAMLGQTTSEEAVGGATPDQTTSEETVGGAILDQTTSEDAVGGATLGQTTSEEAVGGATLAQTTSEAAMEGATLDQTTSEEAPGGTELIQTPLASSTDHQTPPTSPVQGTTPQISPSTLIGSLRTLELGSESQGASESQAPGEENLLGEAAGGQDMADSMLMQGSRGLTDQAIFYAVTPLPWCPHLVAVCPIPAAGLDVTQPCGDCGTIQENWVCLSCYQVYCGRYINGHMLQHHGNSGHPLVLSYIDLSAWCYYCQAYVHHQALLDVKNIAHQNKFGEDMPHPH
The experiment in a line: HDAC enzymatic assay, HDAC6. The class given is biochemical. The note with it: Table 2, thio (SH) vs hydroxamate (CONHOH) MBG analogues; read-out: HDAC isoforms, 6 (IC50). As to the method:
(§1) Each compound was dissolved in DMSO, and progressively diluted solutions were used for testing. […] Upon its deacetylation, the fluorophore was released given rise to fluorescence emission which was detected by a fluorimeter, and the IC50 values of the compounds were determined by analyzing dose-response inhibition curves.

Data set [2] concerns the target T2, HDAC7 (Homo sapiens, UniProt Q8WUI4).
T2 sequence (Q8WUI4 1-952): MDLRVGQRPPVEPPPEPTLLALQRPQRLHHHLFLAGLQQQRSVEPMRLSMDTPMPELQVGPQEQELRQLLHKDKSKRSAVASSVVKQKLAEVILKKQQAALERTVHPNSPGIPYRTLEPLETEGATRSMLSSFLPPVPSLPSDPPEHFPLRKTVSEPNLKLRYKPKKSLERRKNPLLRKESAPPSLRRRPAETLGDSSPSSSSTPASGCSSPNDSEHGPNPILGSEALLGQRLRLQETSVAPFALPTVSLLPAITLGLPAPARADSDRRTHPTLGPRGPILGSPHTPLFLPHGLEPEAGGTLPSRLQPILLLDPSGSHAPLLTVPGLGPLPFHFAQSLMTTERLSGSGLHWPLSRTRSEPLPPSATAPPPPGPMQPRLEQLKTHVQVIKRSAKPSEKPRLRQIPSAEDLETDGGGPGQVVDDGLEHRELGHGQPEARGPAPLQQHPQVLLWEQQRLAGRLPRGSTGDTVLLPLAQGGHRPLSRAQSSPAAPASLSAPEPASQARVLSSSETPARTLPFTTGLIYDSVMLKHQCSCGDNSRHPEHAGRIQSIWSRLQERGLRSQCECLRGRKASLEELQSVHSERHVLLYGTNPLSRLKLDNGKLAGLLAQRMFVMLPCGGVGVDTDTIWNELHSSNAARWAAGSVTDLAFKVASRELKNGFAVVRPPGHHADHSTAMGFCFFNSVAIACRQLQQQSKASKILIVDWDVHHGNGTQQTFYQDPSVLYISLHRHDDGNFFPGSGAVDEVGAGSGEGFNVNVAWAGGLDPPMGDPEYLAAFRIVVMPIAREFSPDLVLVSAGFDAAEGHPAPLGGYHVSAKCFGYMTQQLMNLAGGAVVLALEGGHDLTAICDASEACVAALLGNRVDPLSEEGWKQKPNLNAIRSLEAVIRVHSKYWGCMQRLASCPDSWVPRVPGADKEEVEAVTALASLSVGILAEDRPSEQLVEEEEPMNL
The experiment in a line: HDAC enzymatic assay, HDAC7. The format is biochemical. Particulars: Table 2, thio (SH) vs hydroxamate (CONHOH) MBG analogues; read-out: HDAC isoforms, 7 (IC50). As to the method: as §1

Data set [3] relates to HCT116 colon cancer. The experiment in a line: Antitumour activity, HCT116 xenograft, oral (Example 49). The format is in vivo, mice. The note with it: 60 mg/10 ml/kg p.o., PEG200/DMSO/Cremophor EL. The source says: (§2) The experiment of example 48 was repeated with another compound on mice animal model developing HCT116 colon cancer as described above or A2780 ovarian cancer, and administering the drugs solubilised in orally in PEG200/DMSO/Cremophor EL (Sigma): 85/10/5 (volume percentage).

For data set [4], the system named is A2780 ovarian cancer. The experiment in a line: Antitumour activity, A2780 xenograft, oral (Example 49). The class given is in vivo, mice. Particulars: 110 mg/10 ml/kg p.o., PEG200/DMSO/Cremophor EL.
Description: as §2

For data set [5], the system named is NCI-H460 non-small cell lung carcinoma cells. The experiment in a line: Cytotoxicity, sulphorodamine B, H460. The note with it: Homo sapiens, NCI-H460, read-out: H460 cell line IC50 (μM).
Description: They were allowed to attach and recover for at least 24 h.
The plates were incubated for 24 h at 37° C., after which they were washed 3 times by removal of the supernatant and addition of PBS. The plates were then incubated for further 48 h at 37° C. 200 μl PBS and 50 μl of cold 80% TCA were added and the plates were incubated on ice for at least 1 h. TCA was removed and the plates were washed 3 times by immersion in distilled-water. They were then dried on paper at 40° C. for 5 min. 200 μl of 0.4% sulphorodamine B in 1% acetic acid were added. The plates were incubated at room temperature for further 30 min. Sulphorodamine B was removed, and the plates were washed 3 times by immersion in 1% acetic acid and were dried on paper and at 40° C. for 5 min. Then 200 μl Tris 10 mM were added. The plates were kept under magnetic stirring for 20 min. Cell survival was determined by means of optical density by a Multiskan spectrofluorimeter at 540 nm. The amount of cells killed was calculated as the percentage decrease in sulphorodamine B binding compared to control cultures.

From patent US8927533B2, “Thio derivatives bearing lactams as potent HDAC inhibitors and their uses as medicaments” (SIGMA-TAU Industrie Farmaceutiche Riunite S.p.A., priority 2011, dated 2015) come the findings set out here.

With `CC(=O)SCCCCC[C@H](NC(=O)[C@H]1CCC(=O)N1)C(=O)Nc1ccccc1` [Example 21, Thioacetic acid S—{(S)-6-[((R)-5-oxo-pyrrolidine-2-carbonyl)-amino]-6-phenylcarbamoyl-hexyl}ester], the values for the IC50 in data set [1], in data set [2] and in data set [5] were below 50 nM, below 50 nM and below 0.5 µM, respectively. Besides, the BWL % was 1% in data set [3] and 7% in data set [4]. Further, the values for the TVI % in data set [3] and in data set [4] were 62% and 89%, respectively.

By IC50 is commonly meant the point on the concentration scale where inhibition reaches its midpoint.
